Test results taken from PubChem BioAssay AID1940 (Sanford-Burnham Center for Chemical Genomics, 2009).

Test system: mouse liver microsomes, LC/MS/MS parent remaining, 60 min
Assay: mouse hepatic microsomal parent compound depletion – biochemical, LC/MS/MS, with and without NADPH, ADME assay, late-stage follow-up (AID 1940)
Conditions: at 1 µM, stronger effect = lower value

SMILES: CC1Cc2cc(S(=O)(=O)N3CCN(c4ccc(Cl)cc4)CC3)ccc2N1C(=O)C1CC1 (configuration not stated)
- percent remaining: 0.56%
- percent remaining (measured here: no NADPH control): 61.2%
